# Columns and labels:
# Test in all cases: Kinase profiling (radioactive filter binding)
# Assay type in all cases: biochemical
# IR = IR (Homo sapiens, UniProt P06213); conditions: 1 uM compound
# Description: (§1) 3A5 and 5E4 were sent to the International Centre for Kinase Profiling at the MRC Protein Phosphorylation and Ubiquitylation Unit for profiling (as described in ref ([17])). Compounds were profiled against 140 kinases using a radioactive ([^33P]ATP) filter binding assay at a concentration of 1 μM. Results were obtained as inhibition of kinase activity and are listed in Supplementary Table 2.
# ERK5 = ERK5 (Homo sapiens, UniProt Q13164); conditions: 1 uM compound
# Description: as §1
# TESK1 = TESK1 (Homo sapiens, UniProt Q15569); conditions: 1 uM compound
# Description: as §1
# PINK = PINK (Tribolium castaneum, UniProt D6WMX4); conditions: 1 uM compound
# Description: as §1
# CDK2-Cyclin A = CDK2-Cyclin A (Homo sapiens, UniProt P24941); conditions: 1 uM compound
# Description: as §1
# SIK2 = SIK2 (Homo sapiens, UniProt Q9H0K1); conditions: 1 uM compound
# Description: as §1
# CLK2 = CLK2 (Homo sapiens, UniProt P49760); conditions: for CLK2 activity in kinase profiling: 1 uM compound; for inhibition at 1 µM: 1 μM compound, read-out: inhibition of CLK2 in kinase panel
# Description: as §1
# PKCγ = PKCγ (Homo sapiens, UniProt P05129); conditions: 1 uM compound
# Description: as §1
# IKKb = IKKb (Homo sapiens, UniProt O14920); conditions: 1 uM compound
# Description: as §1
# TBK1 = TBK1 (Homo sapiens, UniProt Q9UHD2); conditions: 1 uM compound
# Description: as §1
# p38a MAPK = p38a MAPK (Homo sapiens, UniProt Q16539); conditions: 1 uM compound
# Description: as §1
# MST2 = MST2 (Homo sapiens, UniProt Q13188); conditions: 1 uM compound
# Description: as §1
# TGFBR1 = TGFBR1 (Homo sapiens, UniProt P36897); conditions: 1 uM compound
# Description: as §1
# SGK1 = SGK1 (Homo sapiens, UniProt O00141); conditions: 1 uM compound
# Description: as §1
# CAMKKb = CAMKKb (Homo sapiens, UniProt Q96RR4); conditions: 1 uM compound
# Description: as §1
# MLK3 = MLK3 (Homo sapiens, UniProt Q16584); conditions: 1 uM compound
# Description: as §1
# STK33 = STK33 (Homo sapiens, UniProt Q9BYT3); conditions: 1 uM compound
# Description: as §1
# CHK1 = CHK1 (Homo sapiens, UniProt O14757); conditions: 1 uM compound
# Description: as §1
# MARK3 = MARK3 (Homo sapiens, UniProt P27448); conditions: 1 uM compound
# Description: as §1
# MKK6 = MKK6 (Homo sapiens, UniProt P52564); conditions: 1 uM compound
# Description: as §1
# MELK = MELK (Homo sapiens, UniProt Q14680); conditions: 1 uM compound
# Description: as §1
# MAPKAP-K3 = MAPKAP-K3 (Homo sapiens, UniProt Q16644); conditions: 1 uM compound
# Description: as §1
# MINK1 = MINK1 (Homo sapiens, UniProt Q8N4C8); conditions: 1 uM compound
# Description: as §1
# PDK1 = PDK1 (Homo sapiens, UniProt O15530); conditions: 1 uM compound
# Description: as §1
# ZAP70 = ZAP70 (Homo sapiens, UniProt P43403); conditions: 1 uM compound
# Description: as §1
# MPSK1 = MPSK1 (Homo sapiens, UniProt O75716); conditions: 1 uM compound
# Description: as §1
# JAK2 = JAK2 (Homo sapiens, UniProt O60674); conditions: 1 uM compound
# Description: as §1
# Lck = Lck (Homo sapiens, UniProt P06239); conditions: 1 uM compound
# Description: as §1
# IGF-1R = IGF-1R (Homo sapiens, UniProt P08069); conditions: 1 uM compound
# Description: as §1
# RSK1 = RSK1 (Homo sapiens, UniProt Q15418); conditions: 1 uM compound
# Description: as §1
# MLK1 = MLK1 (Homo sapiens, UniProt P80192); conditions: 1 uM compound
# Description: as §1
# EPH-B2 = EPH-B2 (Homo sapiens, UniProt P29323); conditions: 1 uM compound
# Description: as §1
# JNK3 = JNK3 (Homo sapiens, UniProt P53779); conditions: 1 uM compound
# Description: as §1
# DYRK3 = DYRK3 (Homo sapiens, UniProt O43781); conditions: 1 uM compound
# Description: as §1
# CK1δ = CK1δ (Homo sapiens, UniProt P48730); conditions: 1 uM compound
# Description: as §1
# WNK1 = WNK1 (Homo sapiens, UniProt Q9H4A3); conditions: 1 uM compound
# Description: as §1
# CDK9-Cyclin T1 = CDK9-Cyclin T1 (Homo sapiens, UniProt P50750); conditions: 1 uM compound
# Description: as §1
# TLK1 = TLK1 (Homo sapiens, UniProt Q9UKI8); conditions: 1 uM compound
# Description: as §1
# EPH-B4 = EPH-B4 (Homo sapiens, UniProt P54760); conditions: 1 uM compound
# Description: as §1
# PKD1 = PKD1 (Homo sapiens, UniProt Q15139); conditions: 1 uM compound
# Description: as §1
# Aurora A = Aurora A (Homo sapiens, UniProt O14965); conditions: 1 uM compound
# Description: as §1
# TTBK2 = TTBK2 (Homo sapiens, UniProt Q6IQ55); conditions: 1 uM compound
# Description: as §1
# Chain of CLK2 (P49760 whole entry): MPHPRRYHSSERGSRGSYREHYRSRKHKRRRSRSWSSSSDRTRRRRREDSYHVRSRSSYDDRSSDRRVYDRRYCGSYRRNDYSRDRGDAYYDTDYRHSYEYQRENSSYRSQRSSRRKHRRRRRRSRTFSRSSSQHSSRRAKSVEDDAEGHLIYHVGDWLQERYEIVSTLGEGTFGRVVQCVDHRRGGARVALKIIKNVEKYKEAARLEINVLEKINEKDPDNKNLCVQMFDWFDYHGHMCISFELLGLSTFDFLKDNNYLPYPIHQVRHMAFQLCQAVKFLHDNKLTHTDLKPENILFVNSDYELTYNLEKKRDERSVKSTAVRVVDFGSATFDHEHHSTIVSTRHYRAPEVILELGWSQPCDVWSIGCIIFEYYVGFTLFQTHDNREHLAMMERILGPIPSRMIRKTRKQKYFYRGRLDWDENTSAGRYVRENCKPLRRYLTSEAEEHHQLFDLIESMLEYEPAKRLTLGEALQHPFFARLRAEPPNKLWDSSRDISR
# Chain of MPSK1 (O75716 whole entry): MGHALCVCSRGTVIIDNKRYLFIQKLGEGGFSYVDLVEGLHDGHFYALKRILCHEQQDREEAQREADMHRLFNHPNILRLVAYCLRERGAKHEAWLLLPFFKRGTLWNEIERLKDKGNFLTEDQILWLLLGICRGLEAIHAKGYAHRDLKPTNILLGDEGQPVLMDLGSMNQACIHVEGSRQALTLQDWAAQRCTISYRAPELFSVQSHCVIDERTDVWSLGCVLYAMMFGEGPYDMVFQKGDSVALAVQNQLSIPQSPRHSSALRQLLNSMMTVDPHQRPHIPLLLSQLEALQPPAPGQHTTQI
# Chain of MAPKAP-K3 (Q16644 whole entry): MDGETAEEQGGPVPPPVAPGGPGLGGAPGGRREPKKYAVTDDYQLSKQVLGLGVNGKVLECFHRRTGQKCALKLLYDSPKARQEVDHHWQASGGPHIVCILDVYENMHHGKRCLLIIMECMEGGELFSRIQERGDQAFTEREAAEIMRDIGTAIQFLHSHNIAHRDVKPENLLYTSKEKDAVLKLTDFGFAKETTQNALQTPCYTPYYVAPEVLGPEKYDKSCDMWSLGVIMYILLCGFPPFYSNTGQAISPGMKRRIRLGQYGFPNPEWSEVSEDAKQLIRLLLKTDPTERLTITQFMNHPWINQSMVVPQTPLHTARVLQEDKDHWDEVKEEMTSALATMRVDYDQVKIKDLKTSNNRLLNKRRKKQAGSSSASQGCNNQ
# Chain of IGF-1R (P08069 31-1367): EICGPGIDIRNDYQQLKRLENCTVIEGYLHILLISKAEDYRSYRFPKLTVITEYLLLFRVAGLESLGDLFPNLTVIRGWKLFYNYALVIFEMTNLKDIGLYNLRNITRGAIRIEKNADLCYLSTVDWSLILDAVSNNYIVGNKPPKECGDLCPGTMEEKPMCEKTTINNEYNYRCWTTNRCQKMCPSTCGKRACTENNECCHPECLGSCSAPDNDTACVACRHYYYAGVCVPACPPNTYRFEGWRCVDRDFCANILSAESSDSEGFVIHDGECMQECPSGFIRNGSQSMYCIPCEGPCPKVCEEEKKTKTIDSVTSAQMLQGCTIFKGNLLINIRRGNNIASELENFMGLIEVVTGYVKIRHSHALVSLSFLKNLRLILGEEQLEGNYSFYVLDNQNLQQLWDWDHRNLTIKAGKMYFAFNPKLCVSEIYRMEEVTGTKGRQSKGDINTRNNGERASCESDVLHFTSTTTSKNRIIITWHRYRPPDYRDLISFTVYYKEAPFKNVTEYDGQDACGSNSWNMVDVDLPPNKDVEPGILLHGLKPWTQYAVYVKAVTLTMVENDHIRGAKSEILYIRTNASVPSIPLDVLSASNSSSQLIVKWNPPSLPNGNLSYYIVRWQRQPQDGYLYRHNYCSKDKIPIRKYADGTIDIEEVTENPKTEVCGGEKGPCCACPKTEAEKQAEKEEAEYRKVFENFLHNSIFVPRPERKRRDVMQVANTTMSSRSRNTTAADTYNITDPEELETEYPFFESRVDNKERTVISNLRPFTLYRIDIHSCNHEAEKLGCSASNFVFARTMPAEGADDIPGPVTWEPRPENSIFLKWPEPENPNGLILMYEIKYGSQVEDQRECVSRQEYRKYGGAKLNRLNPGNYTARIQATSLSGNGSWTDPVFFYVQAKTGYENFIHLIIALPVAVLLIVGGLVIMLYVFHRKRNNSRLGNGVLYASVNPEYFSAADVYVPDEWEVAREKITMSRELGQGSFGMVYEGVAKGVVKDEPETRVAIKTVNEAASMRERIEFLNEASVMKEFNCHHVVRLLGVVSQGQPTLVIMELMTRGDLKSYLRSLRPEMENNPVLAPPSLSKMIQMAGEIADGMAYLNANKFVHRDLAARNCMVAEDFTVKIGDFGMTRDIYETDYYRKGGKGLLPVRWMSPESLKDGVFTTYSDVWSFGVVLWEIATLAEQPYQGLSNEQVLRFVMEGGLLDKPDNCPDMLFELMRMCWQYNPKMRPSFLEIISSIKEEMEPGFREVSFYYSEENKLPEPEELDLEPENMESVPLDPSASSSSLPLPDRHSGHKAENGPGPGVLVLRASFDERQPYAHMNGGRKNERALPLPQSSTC
# Chain of IR (P06213 28-1382): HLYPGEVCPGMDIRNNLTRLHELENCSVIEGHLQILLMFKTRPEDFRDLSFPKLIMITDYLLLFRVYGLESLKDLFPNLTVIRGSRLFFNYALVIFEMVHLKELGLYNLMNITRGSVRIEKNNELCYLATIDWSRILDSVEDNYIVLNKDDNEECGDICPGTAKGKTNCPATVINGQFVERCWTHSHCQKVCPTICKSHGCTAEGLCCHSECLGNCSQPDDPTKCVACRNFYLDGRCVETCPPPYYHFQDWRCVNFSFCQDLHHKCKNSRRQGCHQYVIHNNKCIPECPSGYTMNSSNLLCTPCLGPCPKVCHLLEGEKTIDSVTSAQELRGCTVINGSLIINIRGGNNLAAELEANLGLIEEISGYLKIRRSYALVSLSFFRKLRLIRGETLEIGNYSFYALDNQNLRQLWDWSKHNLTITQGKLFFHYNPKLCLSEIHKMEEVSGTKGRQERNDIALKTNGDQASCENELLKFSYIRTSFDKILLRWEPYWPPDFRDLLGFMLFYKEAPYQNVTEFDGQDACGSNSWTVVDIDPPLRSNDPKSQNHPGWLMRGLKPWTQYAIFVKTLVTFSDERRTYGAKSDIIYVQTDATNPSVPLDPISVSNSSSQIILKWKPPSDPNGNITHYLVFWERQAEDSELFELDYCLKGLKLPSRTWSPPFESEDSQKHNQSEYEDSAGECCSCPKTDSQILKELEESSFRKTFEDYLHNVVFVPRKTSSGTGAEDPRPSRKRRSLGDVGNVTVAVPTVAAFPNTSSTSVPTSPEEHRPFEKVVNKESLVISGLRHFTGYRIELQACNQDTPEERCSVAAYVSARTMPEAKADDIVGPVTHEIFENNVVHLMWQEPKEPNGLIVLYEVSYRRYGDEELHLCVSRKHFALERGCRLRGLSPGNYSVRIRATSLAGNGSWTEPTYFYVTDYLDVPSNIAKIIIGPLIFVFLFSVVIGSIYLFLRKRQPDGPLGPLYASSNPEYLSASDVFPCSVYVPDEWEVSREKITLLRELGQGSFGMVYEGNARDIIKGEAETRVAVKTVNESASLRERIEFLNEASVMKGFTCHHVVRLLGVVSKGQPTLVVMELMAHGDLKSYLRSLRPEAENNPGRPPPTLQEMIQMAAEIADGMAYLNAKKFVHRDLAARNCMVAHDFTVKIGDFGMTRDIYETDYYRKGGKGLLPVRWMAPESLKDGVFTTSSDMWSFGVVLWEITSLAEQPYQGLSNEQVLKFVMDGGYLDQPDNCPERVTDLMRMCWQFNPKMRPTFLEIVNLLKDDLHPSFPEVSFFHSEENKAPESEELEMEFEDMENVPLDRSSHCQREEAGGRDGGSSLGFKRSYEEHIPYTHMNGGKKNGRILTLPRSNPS
# Chain of ERK5 (Q13164 whole entry): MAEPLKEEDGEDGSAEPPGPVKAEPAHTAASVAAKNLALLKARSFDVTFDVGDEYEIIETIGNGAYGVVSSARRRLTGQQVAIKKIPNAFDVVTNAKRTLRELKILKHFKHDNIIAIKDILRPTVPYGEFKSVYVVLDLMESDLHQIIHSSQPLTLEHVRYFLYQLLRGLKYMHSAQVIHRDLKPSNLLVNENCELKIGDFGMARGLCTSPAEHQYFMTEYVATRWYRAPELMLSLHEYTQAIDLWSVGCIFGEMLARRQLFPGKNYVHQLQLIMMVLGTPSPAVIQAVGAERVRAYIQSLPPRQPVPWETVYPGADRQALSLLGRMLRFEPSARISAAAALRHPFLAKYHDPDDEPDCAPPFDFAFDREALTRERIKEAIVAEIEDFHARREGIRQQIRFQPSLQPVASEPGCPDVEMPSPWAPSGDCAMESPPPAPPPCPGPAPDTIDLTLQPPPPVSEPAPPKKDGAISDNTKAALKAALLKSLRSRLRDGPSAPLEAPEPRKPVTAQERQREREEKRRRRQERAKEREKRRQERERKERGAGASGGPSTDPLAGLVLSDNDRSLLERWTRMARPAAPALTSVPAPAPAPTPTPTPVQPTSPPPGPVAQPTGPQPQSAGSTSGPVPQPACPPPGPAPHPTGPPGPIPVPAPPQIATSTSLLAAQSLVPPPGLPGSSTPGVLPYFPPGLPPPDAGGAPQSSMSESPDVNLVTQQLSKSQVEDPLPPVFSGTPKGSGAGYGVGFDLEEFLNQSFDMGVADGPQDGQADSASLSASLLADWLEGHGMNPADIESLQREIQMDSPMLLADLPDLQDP
# Chain of p38a MAPK (Q16539 whole entry): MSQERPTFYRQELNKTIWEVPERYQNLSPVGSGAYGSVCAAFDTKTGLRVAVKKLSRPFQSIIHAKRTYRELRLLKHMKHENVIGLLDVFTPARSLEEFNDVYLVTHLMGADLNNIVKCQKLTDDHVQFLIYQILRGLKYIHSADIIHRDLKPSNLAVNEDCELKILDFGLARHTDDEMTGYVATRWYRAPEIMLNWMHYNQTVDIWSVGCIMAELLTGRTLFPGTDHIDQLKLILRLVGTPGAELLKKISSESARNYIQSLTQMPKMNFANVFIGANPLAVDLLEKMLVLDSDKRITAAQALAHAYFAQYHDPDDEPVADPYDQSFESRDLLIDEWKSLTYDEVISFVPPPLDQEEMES
structure (smiles),measurement,setting,value
"Cc1nc2ccc3sc(NC(=O)c4ccc5ncsc5c4)nc3c2s1 [3A5, N-(2-methyl[1,3]thiazolo[5,4-e][1,3]benzothiazol-7-yl)-1,3-benzothiazole-6-carboxamide]",IR activity in kinase profiling,IR,127
same,ERK5 activity in kinase profiling,ERK5,39
same,TESK1 activity in kinase profiling,TESK1,96
same,PINK activity in kinase profiling,PINK,115
same,CDK2-Cyclin A activity in kinase profiling,CDK2-Cyclin A,115
same,SIK2 activity in kinase profiling,SIK2,91
same,CLK2 activity in kinase profiling,CLK2,3.39
same,inhibition at 1 µM,CLK2,97%
same,PKCγ activity in kinase profiling,PKCγ,102
same,IKKb activity in kinase profiling,IKKb,85
same,TBK1 activity in kinase profiling,TBK1,83
same,p38a MAPK activity in kinase profiling,p38a MAPK,94
same,MST2 activity in kinase profiling,MST2,119
same,TGFBR1 activity in kinase profiling,TGFBR1,93
same,SGK1 activity in kinase profiling,SGK1,85
same,CAMKKb activity in kinase profiling,CAMKKb,98
same,MLK3 activity in kinase profiling,MLK3,49
same,STK33 activity in kinase profiling,STK33,88
same,CHK1 activity in kinase profiling,CHK1,120
same,MARK3 activity in kinase profiling,MARK3,91
same,MKK6 activity in kinase profiling,MKK6,119
same,MELK activity in kinase profiling,MELK,69
same,MAPKAP-K3 activity in kinase profiling,MAPKAP-K3,81
same,MINK1 activity in kinase profiling,MINK1,89
same,PDK1 activity in kinase profiling,PDK1,93
same,ZAP70 activity in kinase profiling,ZAP70,109
same,MPSK1 activity in kinase profiling,MPSK1,150
same,JAK2 activity in kinase profiling,JAK2,112
same,Lck activity in kinase profiling,Lck,116
same,IGF-1R activity in kinase profiling,IGF-1R,123
same,RSK1 activity in kinase profiling,RSK1,83
same,MLK1 activity in kinase profiling,MLK1,73
same,EPH-B2 activity in kinase profiling,EPH-B2,90
same,JNK3 activity in kinase profiling,JNK3,107
same,DYRK3 activity in kinase profiling,DYRK3,72
same,CK1δ activity in kinase profiling,CK1δ,34
same,WNK1 activity in kinase profiling,WNK1,99
same,CDK9-Cyclin T1 activity in kinase profiling,CDK9-Cyclin T1,87
same,TLK1 activity in kinase profiling,TLK1,99
same,EPH-B4 activity in kinase profiling,EPH-B4,103
same,PKD1 activity in kinase profiling,PKD1,96
same,Aurora A activity in kinase profiling,Aurora A,127
same,TTBK2 activity in kinase profiling,TTBK2,108
"CSc1nc2ccc3nc(NC(=O)c4ccco4)sc3c2s1 [5E4, N-[7-(methylsulfanyl)[1,3]thiazolo[4,5-g][1,3]benzothiazol-2-yl]-2-furamide]",IR activity in kinase profiling,IR,116
same,ERK5 activity in kinase profiling,ERK5,39
same,TESK1 activity in kinase profiling,TESK1,95
same,PINK activity in kinase profiling,PINK,118
same,CDK2-Cyclin A activity in kinase profiling,CDK2-Cyclin A,101
same,SIK2 activity in kinase profiling,SIK2,94
same,CLK2 activity in kinase profiling,CLK2,3
same,inhibition at 1 µM,CLK2,97%
same,PKCγ activity in kinase profiling,PKCγ,100
same,IKKb activity in kinase profiling,IKKb,90
same,TBK1 activity in kinase profiling,TBK1,83
same,p38a MAPK activity in kinase profiling,p38a MAPK,96
same,MST2 activity in kinase profiling,MST2,129
same,TGFBR1 activity in kinase profiling,TGFBR1,94
same,SGK1 activity in kinase profiling,SGK1,88
same,CAMKKb activity in kinase profiling,CAMKKb,91
same,MLK3 activity in kinase profiling,MLK3,18
same,STK33 activity in kinase profiling,STK33,110
same,CHK1 activity in kinase profiling,CHK1,111
same,MARK3 activity in kinase profiling,MARK3,83
same,MKK6 activity in kinase profiling,MKK6,101
same,MELK activity in kinase profiling,MELK,71
same,MAPKAP-K3 activity in kinase profiling,MAPKAP-K3,86
same,MINK1 activity in kinase profiling,MINK1,8
same,PDK1 activity in kinase profiling,PDK1,88
same,ZAP70 activity in kinase profiling,ZAP70,93
same,MPSK1 activity in kinase profiling,MPSK1,114
same,JAK2 activity in kinase profiling,JAK2,105
same,Lck activity in kinase profiling,Lck,101
same,IGF-1R activity in kinase profiling,IGF-1R,117
same,RSK1 activity in kinase profiling,RSK1,92
same,MLK1 activity in kinase profiling,MLK1,25
same,EPH-B2 activity in kinase profiling,EPH-B2,94
same,JNK3 activity in kinase profiling,JNK3,123
same,DYRK3 activity in kinase profiling,DYRK3,30
same,CK1δ activity in kinase profiling,CK1δ,94
same,WNK1 activity in kinase profiling,WNK1,90
same,CDK9-Cyclin T1 activity in kinase profiling,CDK9-Cyclin T1,88
same,TLK1 activity in kinase profiling,TLK1,92
same,EPH-B4 activity in kinase profiling,EPH-B4,84
same,PKD1 activity in kinase profiling,PKD1,98
same,Aurora A activity in kinase profiling,Aurora A,107
same,TTBK2 activity in kinase profiling,TTBK2,103
